Reference: patent US9561249B2, “Pharmaceutical formulations of nitrite and uses thereof” (TheraVasc Inc., priority 2013, dated 2017)
Read-outs that look alike come from different tables or passages of the source.

System: subjects with PAD
From the text: An individual subject was withdrawn at the discretion of the responsible investigator and the site study team for the reasons listed below as well as for other safety reasons that may not be listed. In the event one or more subjects were withdrawn, additional subjects were enrolled to ensure an adequate number of subjects complete the cohort. Specific reasons for an individual subject to withdraw included but was not limited to: • Subjects with a pattern of severe adverse events in any SOC, or cardiac monitoring findings as determined by the investigator and/or the sponsor. • Subjects with methemoglobin value 15% on any one occasion during study participation. • Subjects with normal baseline blood pressure who experienced any of the following: an increase in blood pressure to 160 mm Hg systolic and/or 90 mmHg diastolic that persists over 24 hours, an increase from baseline blood pressure of 30 mm Hg systolic and/or 15 mm Hg diastolic that persists over 24 hours, any symptomatic increase in blood pressure. • Subjects with stable elevated blood pressure at baseline who experienced any of the following: an increase in blood pressure to 180 mm Hg systolic and/or 100 mmHg diastolic that persists over 24 hours, an increase from baseline blood pressure of 20 mm Hg systolic and/or 10 mm Hg diastolic that persists over 24 hours, any symptomatic increase in blood pressure. • Subjects who experienced a decrease from baseline blood pressure of 20 mm Hg systolic with or without an increase of 10 beats per minute (BPM) pulse and the presence of symptoms.
The withdrawal criteria allowed a subject to withdraw from the study at any time at his/her own request. The subject may also have been withdrawn at the Investigator's request if it was the Investigator's opinion that it was not in the subject's best interest to continue in the study. The subject was withdrawn if he or she met stopping criteria described above. In the event a subject was withdrawn from the study for any reason, the subject was followed-up with reasonable effort made to determine the reason for their withdrawal from the study and an ET visit as described above. Telephone calls, certified letters and offers of transportation assistance were considered reasonable effort.

For `O=NO` [sodium nitrite], the “Subjects who completed the study” value (40 mg, n = 19) was 17 (89.5%), the “Subjects who withdrew prior to completion” value (40 mg, n = 19) was 2 (10.5%) and the “Withdrawal: Adverse Event” value (40 mg, n = 19) was 1 (5.3%). The “Withdrawal: Met withdrawal-new hypotension” value (40 mg, n = 19) was 0 (0.0%), the “Withdrawal: Subject Request-lack of energy” value (40 mg, n = 19) was 1 (5.3%) and the “Withdrawal: Subject request- no benefit” value (40 mg, n = 19) was 0 (0.0%). For the same molecule, the “Withdrawal: Subject request-refused to continue” value (40 mg, n = 19) was 0 (0.0%), the “Subjects who completed the study” value (80 mg, n = 18) was 15 (83.3%) and the “Subjects who withdrew prior to completion” value (80 mg, n = 18) was 3 (16.7%). For the same molecule, the “Withdrawal: Adverse Event” value (80 mg, n = 18) was 2 (11.1%), the “Withdrawal: Met withdrawal-new hypotension” value (80 mg, n = 18) was 1 (5.6%) and the “Withdrawal: Subject Request-lack of energy” value (80 mg, n = 18) was 0 (0.0%). The “Withdrawal: Subject request- no benefit” value (80 mg, n = 18) was 0 (0.0%) and the “Withdrawal: Subject request-refused to continue” value (80 mg, n = 18) was 0 (0.0%).
